PubChem BioAssay (NCI)
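Protocol summary: plate cells (96-well), add compound at 5 concentrations, incubate 48 h, interpolate endpoints linearly. At the TGI there is no net growth.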 *1 amine or outer side, *2 acyl side, *3 side chain or, on linkers, in order; H or OH if unused. Where a SMILES comes first, the peptide text is derived from it. [ ]: non-standard residue; d: D form. The star is where a group is joined. X31 = CC(=O)N(C)SCC(N[*:1])C(=O)[*:2]; Fmoc = O=C(OCC1c2ccccc2-c2ccccc21)*; Cbz = O=C(OCc1ccccc1)*; Boc = CC(C)(C)OC(=O)*; Bn = c1ccc(C*)cc1

How the values were obtained:
Assay in all cases: DTP human tumour cell line panel, 48 h
[1] = system: M14 melanoma
[2] = system: K-562 leukemia
[3] = system: BT-549 breast
[4] = system: HOP-92 NSCLC
[5] = system: T-47D breast
[6] = system: SNB-19 CNS
[7] = system: MDA-MB-435
[8] = system: A549 NSCLC
[9] = system: UACC-62 melanoma
[10] = system: HCT-116 colon
[11] = system: SN12C renal
[12] = system: NCI-H522 lung
[13] = system: 786-0 renal
[14] = system: IGROV1 ovarian
[15] = system: A498 renal
[16] = system: HOP-62 NSCLC
[17] = system: SF-295 CNS
[18] = system: CCRF-CEM leukemia
[19] = system: ACHN renal

| SMILES | TGI [1] [µM] | TGI [2] [µM] | TGI [3] [µM] | TGI [4] [µM] | TGI [5] [µM] | TGI [6] [µM] | TGI [7] [µM] | TGI [8] [µM] | TGI [9] [µM] | TGI [10] [µM] | TGI [11] [µM] | TGI [12] [µM] | TGI [13] [µM] | TGI [14] [µM] | TGI [15] [µM] | TGI [16] [µM] | TGI [17] [µM] | TGI [18] [µM] | TGI [19] [µM] |
| --- | --- | --- | --- | --- | --- | --- | --- | --- | --- | --- | --- | --- | --- | --- | --- | --- | --- | --- | --- |
| c1ccc2c(c1)NC1(N3CCCCC3)CCCCC21 (stereo not drawn) | > 100 | > 100 | > 100 | 84 | 78.1 | > 100 | > 100 | > 100 | > 100 | > 100 | > 100 | > 100 | > 100 | > 100 | 98 | > 100 | > 100 | > 100 | > 100 |
| C[N+](C)(C)CC(=O)N/N=C/c1ccncc1 | > 100 | > 100 | > 100 | > 100 | > 100 | > 100 | > 100 | > 100 | > 100 | > 100 | > 100 | > 100 | > 100 | > 100 | > 100 | > 100 | > 100 | > 100 | > 100 |
| C=C(CN1CC2C[C@](C(=O)OC)(c3cc4ccccc4[nH]3)C1C(OC)C2OC)S(=O)(=O)c1ccccc1 (stereo partly drawn) | 9.36 | 10.6 | 12.4 | 8.33 | 28.2 | 24.3 | 7.21 | 12.6 | 14.8 | 7.08 | 11.3 | 3.79 | 10 | 8.98 | – | 23.4 | 14.5 | > 77.2 | 9.24 |
| CCOC(=O)C(C(=S)SC)c1nn2c(=O)cc(C)nc2s1 (stereo not drawn) | 29.8 | 34.9 | 34.2 | 43.9 | 42.6 | 43.7 | 32.4 | 37 | 47.6 | 34.3 | 34.2 | 42.5 | 36.1 | 38.1 | – | 42.7 | 44.6 | 77.5 | 37.8 |
| C1CC[C@H]2SSC3CCCC[C@H]3SSC2C1 (stereo partly drawn) | > 100 | > 100 | > 100 | > 100 | > 100 | > 100 | > 100 | > 100 | > 100 | > 100 | > 100 | > 100 | > 100 | > 100 | – | > 100 | > 100 | > 100 | – |
| CC(=O)N(C)SCC(NC(=O)C(Cc1ccccc1)NC(=O)OCc1ccccc1)C(=O)NC(Cc1ccccc1)C(=O)NC(Cc1c[nH]c2ccccc12)C(=O)NC(CCCCNC(=O)OCc1ccccc1)C(=O)NC(C(=O)NC(CSN(C)C(C)=O)C(=O)NC(C(N)=O)C(C)OCc1ccccc1)C(C)OCc1ccccc1 (stereo not drawn) (Cbz-F[X31]FWK(Cbz)T(Bn)[X31]T(Bn)-NH2; configuration not given here) | > 100 | > 100 | > 100 | > 100 | > 100 | > 100 | > 100 | > 100 | > 100 | > 100 | > 100 | – | > 100 | > 100 | – | > 100 | > 100 | > 100 | > 100 |
| COC(=O)[C@H](CC(C)C)Nc1c(O)c2c(c(O)c1Cl)C(=O)C=CC2=O | > 10 | > 10 | > 10 | > 10 | > 10 | > 10 | > 10 | > 10 | > 10 | 5.35 | > 10 | > 10 | > 10 | > 10 | > 10 | > 10 | > 10 | > 10 | > 10 |
| CCOC(=O)C(NC(=O)c1ccccc1)(Nc1ccc(Cl)cc1C(F)(F)F)C(F)(F)F (stereo not drawn) | 28 | > 26.7 | 32.4 | 50.7 | > 45.6 | > 100 | 3.24 | > 100 | 27.4 | > 84.5 | > 44.2 | 7.29 | > 100 | > 64.7 | 47.1 | 31.8 | > 69.8 | – | 27.4 |
| CC(C)(C)OC(=O)NCCCCC(NC(=O)C(Cc1c[nH]c2ccccc12)NC(=O)OCC1c2ccccc2-c2ccccc21)C(=O)N1CCCC1C(=O)NCC(N)=O (stereo not drawn) (Fmoc-WK(Boc)PG-NH2; configuration not given here) | > 100 | > 100 | > 100 | > 100 | > 100 | > 100 | > 100 | > 100 | > 100 | > 100 | > 100 | > 100 | > 100 | > 100 | – | > 100 | > 100 | > 100 | > 100 |
| CC(=O)C1=C(C)N(c2ccc(C)cc2)C2(O)C3=C(C(=O)c4ccccc4C3=O)C(O)=CC12Cl (stereo not drawn) | > 100 | > 100 | 45.9 | > 100 | 69.1 | 35.8 | 14.3 | > 100 | 26.5 | > 100 | 57.9 | 33.2 | > 100 | 52.6 | 10.3 | > 100 | 37.3 | – | > 100 |
| FC(F)(Sc1ncc[nH]1)c1nc2ccccc2o1 | > 100 | > 100 | > 100 | > 100 | > 100 | – | > 100 | > 100 | > 100 | > 100 | > 100 | > 100 | > 100 | > 100 | > 100 | > 100 | > 100 | > 100 | > 100 |
| COC(=O)C1=C(C(=O)OC)SC2(S1)C(C(=O)OC)=C(C(=O)OC)Sc1c2ssc1=Nc1ccc(Cl)cc1 | 2.79 | 5.78 | 5.11 | 1.93 | 3.45 | 2.95 | 2.14 | 3.13 | 2.42 | 1.15 | 1.8 | – | 1.69 | 2.48 | 3.15 | 3.36 | 5.34 | – | 2.7 |
| CCOC1Oc2ccccc2-c2nc(SC)ncc21 (stereo not drawn) | > 100 | – | > 100 | > 100 | > 100 | > 100 | > 100 | > 100 | > 100 | > 100 | > 100 | > 100 | > 100 | > 100 | > 100 | – | > 100 | > 100 | > 100 |
| COC(=O)C1(C(=O)OC)N=C(C)OC1/C=C/c1ccccc1 (stereo not drawn) | > 100 | > 100 | > 100 | > 100 | > 100 | > 100 | > 100 | > 100 | > 100 | > 100 | > 100 | – | > 100 | > 100 | > 100 | > 100 | > 100 | > 100 | > 100 |
| Cc1cc(S(=O)(=O)/N=C(/[N-]S(=O)(=O)c2ccc(Cl)cc2)[n+]2ccc(N(C)C)cc2)c(SCC(=O)O)cc1Cl | > 100 | > 100 | > 100 | 54.3 | > 100 | > 100 | > 100 | > 100 | > 100 | > 100 | > 100 | – | > 100 | – | > 100 | 46.2 | > 100 | > 100 | > 100 |
| COc1ccc(C2C3CCc4ccccc4C3=NN2S(=O)(=O)c2ccc(/C=C/C(=O)O)cc2)cc1 (stereo not drawn) | > 100 | 15.7 | > 100 | > 100 | > 100 | > 100 | 2.69 | 54.4 | 23.8 | 38.2 | > 100 | 7.04 | 15.9 | 4.91 | – | > 100 | 9.08 | 22.9 | 14.1 |
| CSC12c3cc(C)n(-c4ccccc4)c3CC(C)(C)CN1C(=O)C2Oc1ccccc1 (stereo not drawn) | > 100 | > 100 | > 100 | > 100 | > 100 | > 100 | > 100 | 86.4 | > 100 | > 100 | > 100 | – | > 100 | > 100 | > 100 | > 100 | > 100 | > 100 | > 100 |
| CCOC(=O)c1[nH]cc(C)c1-c1ccc2c(-c3ccccc3)nc3ccccc3n12 | 27.5 | 9.13 | 17.4 | 14 | 18.4 | – | 11.2 | 18.5 | 10.8 | 12.5 | 15.2 | 4.79 | 12.8 | 16.1 | 9.98 | 29.9 | 13.6 | 13 | 15.5 |
| COC(=O)C1=C(C)C=C(N2CCOCC2)C(C(=O)OC)C1c1ccccc1 (stereo not drawn) | > 10 | > 10 | > 10 | > 10 | > 10 | > 10 | > 10 | > 10 | – | > 10 | > 10 | > 10 | > 10 | > 10 | > 10 | > 10 | > 10 | > 10 | > 10 |
| O=C(O)CC(Sc1ccccc1)c1ccccc1 (stereo not drawn) | > 100 | > 100 | > 100 | > 100 | > 100 | > 100 | > 100 | > 100 | > 100 | > 100 | > 100 | > 100 | > 100 | > 100 | > 100 | > 100 | > 100 | – | > 100 |
| Fc1ccc(-c2sc(-c3cccs3)cc2Cc2cccs2)cc1 | > 100 | > 100 | > 100 | > 100 | > 100 | > 100 | > 100 | > 100 | > 100 | > 100 | > 100 | > 100 | > 100 | > 100 | > 100 | – | > 100 | > 100 | > 100 |
| Cc1nnc(N)nc1/C=C/c1c(O)ccc2ccccc12 | 44.1 | > 100 | > 100 | 86.9 | > 100 | > 100 | 79.5 | > 100 | 85 | > 100 | > 100 | – | > 100 | 32.2 | 47.1 | > 100 | 56.9 | > 100 | 43.7 |
| Brc1ccc2c(c1)-c1nc3nc4c(cc3cc1CC2)CCc1ccc(Br)cc1-4 | > 100 | > 100 | > 100 | > 100 | > 100 | > 100 | > 100 | > 100 | – | > 100 | > 100 | > 100 | > 100 | > 100 | > 100 | > 100 | > 100 | – | > 100 |
| O=C1CSC(c2c[nH]c3ccccc23)N1c1ccccc1[N+](=O)[O-] (stereo not drawn) | > 100 | > 100 | > 100 | > 100 | > 100 | > 100 | > 100 | > 100 | > 100 | > 100 | > 100 | > 100 | > 100 | > 100 | – | > 100 | > 100 | > 100 | – |
